The NIST ThermoML archive (doi:10.1016/j.jct.2004.08.003)
Numbers after ± are expanded uncertainties.

Legend:
[1] = relative permittivity at various frequencies (dimensionless); xn = mol fraction of the nth substance listed; settings: 101.3 kPa, Liquid, Frequency=1 MHz, HP4284A LCR Meter with HP16452A measuring cell
[2] = xn = mol fraction of the nth substance listed; settings: 101.3 kPa, Liquid

COCCOCCOCCOC [2,5,8,11-tetraoxadodecane] + CCCCCCCCCCCC
Settings	mass density, [2] [kg/m3]	relative permittivity, [1]
288.15 K, x1 = 0.0983	769.24 ± 1.1	–
288.15 K, x1 = 0.0993	–	2.3 ± 0.05
288.15 K, x1 = 0.1981	–	2.61 ± 0.05
288.15 K, x1 = 0.2007	788.2 ± 1	–
288.15 K, x1 = 0.2498	–	2.79 ± 0.06
288.15 K, x1 = 0.2526	798.35 ± 0.97	–
288.15 K, x1 = 0.2974	807.41 ± 0.95	–
288.15 K, x1 = 0.3051	–	3.01 ± 0.06
288.15 K, x1 = 0.396	–	3.4 ± 0.07
288.15 K, x1 = 0.398	828.67 ± 0.89	–
288.15 K, x1 = 0.5011	–	3.92 ± 0.08
288.15 K, x1 = 0.5097	853.81 ± 0.84	–
288.15 K, x1 = 0.5986	875.06 ± 0.78	–
288.15 K, x1 = 0.5991	–	4.51 ± 0.09
288.15 K, x1 = 0.6981	900.28 ± 0.73	–
288.15 K, x1 = 0.7114	–	5.28 ± 0.11
288.15 K, x1 = 0.7994	–	5.98 ± 0.12
288.15 K, x1 = 0.8012	928.25 ± 0.67	–
288.15 K, x1 = 0.8996	–	6.87 ± 0.14
288.15 K, x1 = 0.9009	957.48 ± 0.62	–
288.15 K, x1 = 0.9504	–	7.37 ± 0.15
288.15 K, x1 = 0.951	973.13 ± 0.59	–
293.15 K, x1 = 0.0989	765.55 ± 1.1	–
293.15 K, x1 = 0.0992	–	2.3 ± 0.05
293.15 K, x1 = 0.1969	783.56 ± 1	–
293.15 K, x1 = 0.2005	–	2.6 ± 0.05
293.15 K, x1 = 0.2488	793.6 ± 0.98	–
293.15 K, x1 = 0.252	–	2.78 ± 0.06
293.15 K, x1 = 0.2988	–	2.95 ± 0.06
293.15 K, x1 = 0.3069	805.3 ± 0.95	–
293.15 K, x1 = 0.3978	–	3.37 ± 0.07
293.15 K, x1 = 0.4006	825.05 ± 0.9	–
293.15 K, x1 = 0.5003	–	3.87 ± 0.08
293.15 K, x1 = 0.5006	847.38 ± 0.85	–
293.15 K, x1 = 0.5981	870.51 ± 0.79	–
293.15 K, x1 = 0.6016	–	4.45 ± 0.09
293.15 K, x1 = 0.698	–	5.08 ± 0.1
293.15 K, x1 = 0.6989	895.89 ± 0.74	–
293.15 K, x1 = 0.7963	922.13 ± 0.68	–
293.15 K, x1 = 0.7995	–	5.85 ± 0.12
293.15 K, x1 = 0.8997	–	6.73 ± 0.13
293.15 K, x1 = 0.9032	953.28 ± 0.62	–
293.15 K, x1 = 0.9492	–	7.2 ± 0.14
293.15 K, x1 = 0.95	967.84 ± 0.6	–
298.15 K, x1 = 0.088	–	2.25 ± 0.05
298.15 K, x1 = 0.0984	761.73 ± 1.1	–
298.15 K, x1 = 0.1995	780.21 ± 1	–
298.15 K, x1 = 0.2006	–	2.58 ± 0.05
298.15 K, x1 = 0.2494	–	2.74 ± 0.06
298.15 K, x1 = 0.2511	790.16 ± 0.99	–
298.15 K, x1 = 0.3005	800.04 ± 0.97	–
298.15 K, x1 = 0.3046	–	2.95 ± 0.06
298.15 K, x1 = 0.3988	820.63 ± 0.91	–
298.15 K, x1 = 0.4127	–	3.4 ± 0.07
298.15 K, x1 = 0.496	–	3.8 ± 0.08
298.15 K, x1 = 0.4974	842.53 ± 0.86	–
298.15 K, x1 = 0.5972	–	4.35 ± 0.09
298.15 K, x1 = 0.598	866.25 ± 0.8	–
298.15 K, x1 = 0.6987	–	4.98 ± 0.1
298.15 K, x1 = 0.6997	891.79 ± 0.74	–
298.15 K, x1 = 0.7954	917.48 ± 0.69	–
298.15 K, x1 = 0.8028	–	5.76 ± 0.12
298.15 K, x1 = 0.9014	948.24 ± 0.63	–
298.15 K, x1 = 0.9022	–	6.61 ± 0.13
298.15 K, x1 = 0.9504	–	7.07 ± 0.14
298.15 K, x1 = 0.9513	963.73 ± 0.61	–
303.15 K, x1 = 0.0987	758.05 ± 1.1	–
303.15 K, x1 = 0.099	–	2.26 ± 0.05
303.15 K, x1 = 0.1997	–	2.56 ± 0.05
303.15 K, x1 = 0.2033	777 ± 1	–
303.15 K, x1 = 0.2498	785.94 ± 1	–
303.15 K, x1 = 0.2517	–	2.73 ± 0.05
303.15 K, x1 = 0.2994	795.76 ± 0.98	2.9 ± 0.06
303.15 K, x1 = 0.3949	815.57 ± 0.93	–
303.15 K, x1 = 0.3976	–	3.3 ± 0.07
303.15 K, x1 = 0.4991	–	3.76 ± 0.08
303.15 K, x1 = 0.5002	838.84 ± 0.87	–
303.15 K, x1 = 0.5969	–	4.29 ± 0.09
303.15 K, x1 = 0.5996	862.24 ± 0.81	–
303.15 K, x1 = 0.6979	886.84 ± 0.76	–
303.15 K, x1 = 0.699	–	4.94 ± 0.1
303.15 K, x1 = 0.7996	914.11 ± 0.7	–
303.15 K, x1 = 0.8015	–	5.69 ± 0.11
303.15 K, x1 = 0.9015	943.66 ± 0.64	–
303.15 K, x1 = 0.9058	–	6.55 ± 0.13
303.15 K, x1 = 0.9494	–	6.96 ± 0.14
303.15 K, x1 = 0.9509	958.94 ± 0.61	–
308.15 K, x1 = 0.0988	–	2.25 ± 0.05
308.15 K, x1 = 0.1	754.59 ± 1.1	–
308.15 K, x1 = 0.1965	–	2.53 ± 0.05
308.15 K, x1 = 0.1987	772.42 ± 1	–
308.15 K, x1 = 0.2471	–	2.7 ± 0.05
308.15 K, x1 = 0.2494	782.08 ± 1	–
308.15 K, x1 = 0.2992	791.92 ± 0.99	–
308.15 K, x1 = 0.307	–	2.91 ± 0.06
308.15 K, x1 = 0.3968	812.1 ± 0.94	–
308.15 K, x1 = 0.4071	–	3.31 ± 0.07
308.15 K, x1 = 0.4983	–	3.73 ± 0.07
308.15 K, x1 = 0.5058	836.19 ± 0.88	–
308.15 K, x1 = 0.5976	857.76 ± 0.82	–
308.15 K, x1 = 0.598	–	4.25 ± 0.09
308.15 K, x1 = 0.6938	–	4.83 ± 0.1
308.15 K, x1 = 0.6974	882.71 ± 0.76	–
308.15 K, x1 = 0.7997	–	5.57 ± 0.11
308.15 K, x1 = 0.7998	910.17 ± 0.7	–
308.15 K, x1 = 0.9018	–	6.41 ± 0.13
308.15 K, x1 = 0.9025	939.96 ± 0.65	–
308.15 K, x1 = 0.9501	–	6.86 ± 0.14
308.15 K, x1 = 0.9512	955.04 ± 0.62	–
318.15 K, x1 = 0.0976	746.77 ± 1.1	–
318.15 K, x1 = 0.0989	–	2.23 ± 0.04
318.15 K, x1 = 0.1979	764.58 ± 1.1	–
318.15 K, x1 = 0.2	–	2.51 ± 0.05
318.15 K, x1 = 0.248	773.96 ± 1	–
318.15 K, x1 = 0.249	–	2.66 ± 0.05
318.15 K, x1 = 0.297	–	2.82 ± 0.06
318.15 K, x1 = 0.3015	784.34 ± 1	–
318.15 K, x1 = 0.3929	–	3.18 ± 0.06
318.15 K, x1 = 0.4004	804.52 ± 0.96	–
318.15 K, x1 = 0.5013	826.47 ± 0.9	–
318.15 K, x1 = 0.5026	–	3.66 ± 0.07
318.15 K, x1 = 0.6015	–	4.16 ± 0.08
318.15 K, x1 = 0.6035	850.21 ± 0.84	–
318.15 K, x1 = 0.6959	873.06 ± 0.79	–
318.15 K, x1 = 0.7035	–	4.76 ± 0.1
318.15 K, x1 = 0.7956	899.51 ± 0.73	–
318.15 K, x1 = 0.7989	–	5.4 ± 0.11
318.15 K, x1 = 0.9004	–	6.19 ± 0.12
318.15 K, x1 = 0.9025	930.16 ± 0.66	–
318.15 K, x1 = 0.949	944.39 ± 0.64	–
318.15 K, x1 = 0.9505	–	6.62 ± 0.13
328.15 K, x1 = 0.0988	–	2.23 ± 0.04
328.15 K, x1 = 0.0996	739.48 ± 1.1	–
328.15 K, x1 = 0.1986	–	2.49 ± 0.05
328.15 K, x1 = 0.208	758.56 ± 1.1	–
328.15 K, x1 = 0.2483	–	2.62 ± 0.05
328.15 K, x1 = 0.2561	767.51 ± 1.1	–
328.15 K, x1 = 0.3036	776.66 ± 1	–
328.15 K, x1 = 0.3062	–	2.81 ± 0.06
328.15 K, x1 = 0.3961	–	3.14 ± 0.06
328.15 K, x1 = 0.3988	795.88 ± 0.98	–
328.15 K, x1 = 0.4898	815.4 ± 0.93	–
328.15 K, x1 = 0.4986	–	3.56 ± 0.07
328.15 K, x1 = 0.596	–	4.03 ± 0.08
328.15 K, x1 = 0.5972	839.96 ± 0.87	–
328.15 K, x1 = 0.6906	862.83 ± 0.81	–
328.15 K, x1 = 0.6969	–	4.61 ± 0.09
328.15 K, x1 = 0.7914	–	5.22 ± 0.1
328.15 K, x1 = 0.8023	892.19 ± 0.74	–
328.15 K, x1 = 0.8935	–	5.99 ± 0.12
328.15 K, x1 = 0.8988	919.73 ± 0.68	–
328.15 K, x1 = 0.9494	–	6.44 ± 0.13
328.15 K, x1 = 0.9518	935.78 ± 0.65	–
